From ChEMBL document CHEMBL1126545, “Metabolism and biological activity of 1,25(OH)2D2 and its metabolites in a chronic myelogenous leukemia cell line, rwleu-4” (Bioorg Med Chem Lett, 1993)

Experiments:
RWLeu4 [1] = experiment: Concentration required to decrease [3H]thymidine incorporation by 50 percent in RWLeu4 CML cell line as compared to untreated cells was determined; format: functional, cell-based; conditions: Homo sapiens
RWLeu4 [2] = experiment: Change in cell surface marker (CD11b) along monocyte-macrophage pathway on RWLeu-4 cells; value represents the percentage of total cells positive for CD11b marker; format: functional, Homo sapiens
RWLeu4 [3] = experiment: Change in cell surface marker (CD4) along monocyte-macrophage pathway on RWLeu-4 cells; value represents the percentage of total cells positive for CD4 marker; format: functional, Homo sapiens

Structure (SMILES)	IC50 (RWLeu4 [1]) [nM]	Cells positive (RWLeu4 [2]) [%]	Cells positive (RWLeu4 [3]) [%]
C=C1/C(=C\C=C2/CCC[C@]3(C)[C@@H]([C@H](C)CC[C@@H](O)C(C)(C)O)CC[C@@H]23)C[C@@H](O)C[C@@H]1O	11	–	–
C=C1/C(=C\C=C2/CCC[C@]3(C)[C@@H]([C@H](C)/C=C/C(O)(CO)C(C)(C)O)CC[C@@H]23)C[C@@H](O)C[C@@H]1O (stereo partly specified)	> 100	–	–
C=C1/C(=C\C=C2/CCC[C@@]3(C)C2CC[C@@H]3[C@H](C)/C=C/C(C)(O)C(C)(O)CO)C[C@@H](O)C[C@@H]1O (stereo partly specified)	11	–	–

Now from value to compound, other results behind:

IC50 (RWLeu4 [1]) [nM]	Structure (SMILES)	Cells positive (RWLeu4 [2]) [%]	Cells positive (RWLeu4 [3]) [%]
96	C=C1/C(=C\C=C2/CCC[C@]3(C)[C@@H]([C@H](C)/C=C/C(CO)C(C)(C)O)CC[C@@H]23)C[C@@H](O)C[C@@H]1O (stereo partly specified)	–	–
11	C=C1/C(=C\C=C2/CCC[C@@]3(C)C2CC[C@@H]3[C@H](C)/C=C/C(C)(O)C(C)(C)O)C[C@@H](O)C[C@@H]1O (stereo partly specified)	–	–
13	C=C1/C(=C\C=C2/CCC[C@]3(C)[C@@H]([C@H](C)/C=C/C(C)C(C)(C)O)CC[C@@H]23)C[C@@H](O)C[C@@H]1O (stereo partly specified)	88	15
8	C=C1/C(=C\C=C2/CCC[C@@]3(C)C2CC[C@@H]3[C@H](C)/C=C/C(C)C(C)(O)CO)C[C@@H](O)C[C@@H]1O (stereo partly specified)	89	21
